Laboratory results as given in patent publication US20240228535A1 (priority 2022, published 2024).

Biological target: SARS2 coronavirus 3CL protease (Severe acute respiratory syndrome coronavirus 2, UniProt P0DTD1)
Assay: biochemical
Conditions: 5 nM enzyme, 30 min pre-incubation with compound, 15 μM peptide substrate, 4 h at room temperature; read-out: FRET Potency (nM); IC50 values in the SARS2 3CLPro FRET assay

Structure (SMILES)	IC50 [nM]
C[C@@H]1C[C@@H](C[C@H](NC(=O)c2cc(Cl)ccc2NC(=O)N(C)CC2CCC(F)(F)CC2)C(=O)C(=O)NC2CC2)C(=O)N1 [Example 105, 5-chloro-N—((S)-4-(cyclopropylamino)-1-((3S,5R)-5-methyl-2-oxopyrrolidin-3-yl)-3,4-dioxobutan-2-yl)-2-(3-((4,4-difluorocyclohexyl)methyl)-3-methylureido)benzamide]	10.9
CNC(=O)C(=O)[C@H](C[C@@H]1CCNC1=O)NC(=O)c1cc(Cl)ccc1NC(=O)OC [Example 106]	4.3
COC(=O)Nc1ccc(Cl)cc1C(=O)N[C@@H](C[C@@H]1C[C@@H](C)NC1=O)C(=O)C(N)=O [Example 107, methyl N-[2-[[(1S)-3-amino-1-[[(3S,5R)-5-methyl-2-oxo-pyrrolidin-3-yl]methyl]-2,3-dioxo-propyl]carbamoyl]-4-chloro-phenyl]carbamate]	12.6
[2H]C([2H])([2H])OC(=O)Nc1ccc(Cl)cc1C(=O)N[C@@H](C[C@@H]1CCNC1=O)C(=O)C(=O)NC [Example 108, trideuteriomethyl N-[4-chloro-2-[[(1S)-3-(methylamino)-2,3-dioxo-1-[[(3S)-2-oxopyrrolidin-3-yl]methyl]propyl]carbamoyl]phenyl]carbamate]	4.8
CNC(=O)C(=O)[C@H](C[C@@H]1CCNC1=O)NC(=O)c1cc(F)c(F)cc1NC(=O)OC [Example 109, methyl N-[4,5-difluoro-2-[[(1S)-3-(methylamino)-2,3-dioxo-1-[[(3S)-2-oxopyrrolidin-3-yl]methyl]propyl]carbamoyl]phenyl]carbamate]	6
CNC(=O)C(=O)[C@H](C[C@@H]1CCNC1=O)NC(=O)c1cc(Cl)ccc1NC(=O)C1CC1 [Example 110, 5-chloro-2-(cyclopropanecarbonylamino)-N-[(1S)-3-(methylamino)-2,3-dioxo-1-[[(3S)-2-oxopyrrolidin-3-yl]methyl]propyl]benzamide]	3.1
CCOC(=O)Nc1ccc(Cl)cc1C(=O)N[C@@H](C[C@@H]1CCNC1=O)C(=O)C(=O)NC [Example 111, ethyl N-[4-chloro-2-[[(1S)-3-(methylamino)-2,3-dioxo-1-[[(3S)-2-oxopyrrolidin-3-yl]methyl]propyl]carbamoyl]phenyl]carbamate]	5.8
[2H]C([2H])([2H])OC(=O)Nc1ccc(Cl)cc1C(=O)N[C@@H](C[C@@H]1C[C@@H](C)NC1=O)C(=O)C(=O)NC [Example 112, trideuteriomethyl N-[4-chloro-2-[[(1S)-3-(methylamino)-1-[[(3S,5R)-5-methyl-2-oxo-pyrrolidin-3-yl]methyl]-2,3-dioxo-propyl]carbamoyl]phenyl] carbamate]	6
CNC(=O)C(=O)[C@H](C[C@@H]1C[C@@H](C)NC1=O)NC(=O)c1nc(Cl)ccc1NC(=O)OC [Example 113]	1290
C[C@@H]1C[C@@H](C[C@H](NC(=O)c2cc(Cl)ccc2NC(=O)CCC(F)(F)F)C(=O)C(=O)NCc2ccncc2)C(=O)N1 [Example 114, 5-chloro-N-[(1S)-1-[[(3S,5R)-5-methyl-2-oxo-pyrrolidin-3-yl]methyl]-2,3-dioxo-3-(4-pyridylmethylamino)propyl]-2-(4,4,4-trifluorobutanoylamino) benzamide]	18.9
C[C@@H]1C[C@@H](C[C@H](NC(=O)c2cc(Cl)ccc2NC(=O)CCC(F)(F)F)C(=O)C(=O)NCc2ccccc2)C(=O)N1 [Example 115, N—((S)-4-(benzylamino)-1-((3S,5R)-5-methyl-2-oxopyrrolidin-3-yl)-3,4-dioxobutan-2-yl)-5-chloro-2-(4,4,4-trifluorobutanamido)benzamide]	11.5
C[C@@H]1C[C@@H](C[C@H](NC(=O)c2cc(Cl)ccc2NC(=O)CCC(F)(F)F)C(=O)C(=O)NCc2nc[nH]n2)C(=O)N1 [Example 116, 5-chloro-N-[(1S)-1-[[(3S,5R)-5-methyl-2-oxo-pyrrolidin-3-yl]methyl]-2,3-dioxo-3-(1H-1,2,4-triazol-3-ylmethylamino)propyl]-2-(4,4,4-trifluorobutanoylamino) benzamide]	20.9
C[C@@H]1C[C@@H](C[C@H](NC(=O)c2cc(Cl)ccc2NC(=O)CCC(F)(F)F)C(=O)C(=O)NCCO)C(=O)N1 [Example 117, 5-chloro-N-[(1S)-3-(2-hydroxyethylamino)-1-[[(3S,5R)-5-methyl-2-oxo-pyrrolidin-3-yl]methyl]-2,3-dioxo-propyl]-2-(4,4,4-trifluorobutanoylamino) benzamide]	9.3
CNC(=O)C(=O)[C@H](C[C@@H]1C[C@@H](C)NC1=O)NC(=O)c1cc(Cl)ncc1NC(=O)OC [Example 118]	23.9
CNC(=O)C(=O)[C@H](C[C@@H]1C[C@@H](C)NC1=O)NC(=O)c1cc(Cl)cnc1NC(=O)OC [Example 119, methyl N-[5-chloro-3-[[(1S)-3-(methylamino)-1-[[(3S,5R)-5-methyl-2-oxo-pyrrolidin-3-yl]methyl]-2,3-dioxo-propyl]carbamoyl]-2-pyridyl]carbamate]	5.6
CNC(=O)C(=O)[C@H](C[C@@H]1C[C@@H](C)NC1=O)NC(=O)c1cc(F)c(F)cc1NC(=O)OC [Example 120, methyl N-[4,5-difluoro-2-[[(1S)-3-(methylamino)-1-[[(3S,5R)-5-methyl-2-oxo-pyrrolidin-3-yl]methyl]-2,3-dioxo-propyl]carbamoyl]phenyl] carbamate]	11.1

Structure (SMILES)	IC50 [nM]
CNC(=O)C(=O)[C@H](C[C@@H]1C[C@@H](C)NC1=O)NC(=O)c1cc(F)ccc1NC(=O)OC1CC1 [Example 121, cyclopropyl N-[4-fluoro-2-[[(1S)-3-(methylamino)-1-[[(3S,5R)-5-methyl-2-oxo-pyrrolidin-3-yl]methyl]-2,3-dioxo-propyl]carbamoyl]phenyl] carbamate]	10.9
CNC(=O)C(=O)[C@H](C[C@@H]1C[C@@H](C)NC1=O)NC(=O)c1cc(Cl)ccc1NC(=O)C1CC1 [Example 122]	8.1
COC(=O)Nc1ccc(Cl)cc1C(=O)N[C@@H](C[C@@H]1CCNC1=O)C(=O)C(=O)NC1CC1 [Example 123]	7.3
[2H]C([2H])([2H])OC(=O)Nc1ccc(Cl)cc1C(=O)N[C@@H](C[C@@H]1CCNC1=O)C(=O)C(=O)NC1CC1 [Example 124, trideuteriomethyl N-[4-chloro-2-[[(1S)-3-(cyclopropylamino)-2,3-dioxo-1-[[(3S)-2-oxopyrrolidin-3-yl]methyl]propyl]carbamoyl]phenyl]carbamate]	8.2
CNC(=O)C(=O)[C@H](C[C@@H]1C[C@@H](C)NC1=O)NC(=O)c1cc(Cl)ccc1NC(=O)C(C)C [Example 125, 5-chloro-N-[(1S)-3-(methylamino)-1-[[(3S,5R)-5-methyl-2-oxo-pyrrolidin-3-yl]methyl]-2,3-dioxo-propyl]-2-(2-methylpropanoylamino) benzamide]	5.6
CNC(=O)C(=O)[C@H](C[C@@H]1CCNC1=O)NC(=O)c1cc(Cl)ccc1NC(=O)C(C)(C)C [Example 126, 5-chloro-2-(2,2-dimethylpropanoylamino)-N-[(1S)-3-(methylamino)-2,3-dioxo-1-[[(3S)-2-oxopyrrolidin-3-yl]methyl]propyl]benzamide]	3.8
CNC(=O)C(=O)[C@H](C[C@@H]1CCNC1=O)NC(=O)c1cc(F)c(F)cc1NC(=O)OC1CC1 [Example 127, cyclopropyl N-[4,5-difluoro-2-[[(1S)-3-(methylamino)-2,3-dioxo-1-[[(3S)-2-oxopyrrolidin-3-yl]methyl]propyl]carbamoyl]phenyl]carbamate]	7.9
CNC(=O)C(=O)[C@H](C[C@@H]1CCNC1=O)NC(=O)c1cc(Cl)ccc1NC(=O)OC(C)C [Example 128, isopropyl N-[4-chloro-2-[[(1S)-3-(methylamino)-2,3-dioxo-1-[[(3S)-2-oxopyrrolidin-3-yl]methyl]propyl]carbamoyl]phenyl]carbamate]	7.2
CCOC(=O)Nc1ccc(Cl)cc1C(=O)N[C@@H](C[C@@H]1C[C@@H](C)NC1=O)C(=O)C(=O)NC [Example 129, ethyl N-[4-chloro-2-[[(1S)-3-(methylamino)-1-[[(3S,5R)-5-methyl-2-oxo-pyrrolidin-3-yl]methyl]-2,3-dioxo-propyl]carbamoyl]phenyl] carbamate]	5.9
CNC(=O)C(=O)[C@H](C[C@@H]1C[C@@H](C)NC1=O)NC(=O)c1cc(C(F)F)ccc1NC(=O)OC [Example 130, methyl N-[4-(difluoromethyl)-2-[[(1S)-3-(methylamino)-1-[[(3S,5R)-5-methyl-2-oxo-pyrrolidin-3-yl]methyl]-2,3-dioxo-propyl]carbamoyl]phenyl] carbamate]	20.7
CNC(=O)C(=O)[C@H](C[C@@H]1C[C@@H](C)NC1=O)NC(=O)c1cc(C#N)ccc1NC(=O)OC1CC1 [Example 131, cyclopropyl N-[4-cyano-2-[[(1S)-3-(methylamino)-1-[[(3S,5R)-5-methyl-2-oxo-pyrrolidin-3-yl]methyl]-2,3-dioxo-propyl]carbamoyl]phenyl] carbamate]	36.5
CNC(=O)C(=O)[C@H](C[C@@H]1C[C@@H](C)NC1=O)NC(=O)c1cc(Cl)c(F)cc1NC(=O)OC [Example 132, methyl N-[4-chloro-5-fluoro-2-[[(1S)-3-(methylamino)-1-[[(3S,5R)-5-methyl-2-oxo-pyrrolidin-3-yl]methyl]-2,3-dioxo-propyl]carbamoyl]phenyl] carbamate]	13.8
CNC(=O)C(=O)[C@H](C[C@@H]1C[C@@H](C)NC1=O)NC(=O)c1cc(Cl)cc(F)c1NC(=O)OC [Example 133, methyl N-[4-chloro-2-fluoro-6-[[(1S)-3-(methylamino)-1-[[(3S,5R)-5-methyl-2-oxo-pyrrolidin-3-yl]methyl]-2,3-dioxo-propyl]carbamoyl]phenyl] carbamate]	9.9
CNC(=O)C(=O)[C@H](C[C@@H]1C[C@@H](C)NC1=O)NC(=O)c1cc(F)c(Cl)cc1NC(=O)OC [Example 134, methyl N-[5-chloro-4-fluoro-2-[(1S)-3-(methylamino)-1-[[(3S,5R)-5-methyl-2-oxo-pyrrolidin-3-yl]methyl]-2,3-dioxo-propyl]carbamoyl]phenyl] carbamate]	28.2
CNC(=O)C(=O)[C@H](C[C@@H]1C[C@@H](C)NC1=O)NC(=O)c1cc(Cl)ccc1NC(=O)C1COC1 [Example 135]	3
